Consider 4 compounds from article PMC6331910, “The Curcumin Analogue 1,5-Bis(2-hydroxyphenyl)-1,4-pentadiene-3-one Induces Apoptosis and Downregulates E6 and E7 Oncogene Expression in HPV16 and HPV18-Infected Cervical Cancer Cells” (Molecules, 2015).

Broadly, the EC50 is the concentration giving half of the maximal effect. What is called inhibition is how much of the control response was suppressed. The term cell viability denotes a read-out of living cells in per cent, often relative to untreated cells. As a reminder, the viability is a read-out of living cells in per cent, often relative to untreated cells.

Read-outs that look alike come from different tables or passages of the source.

Data set [1] deals with HeLa. The experiment in a line: MTT anti-proliferative (time-dependent) assay, 24, 48 and 72 h. The format is cell-based, human. Conditions: for concentration from which a notable decline in cell viability was caused / cell growth: at 24, 48 and 72 h; for reduction of cell viability: 12.5 μM and above. As for the experimental part:
(§1) HeLa, CaSki and MRC9 cells were plated in triplicate wells in 96-well flat-bottomed tissue culture plates (Nunc, Roskilde, Denmark) with 10^5 cells per mL in 100 μL culture media with working concentrations of diarylpentanoid treatment ranging from 1.6 to 100 μM. Control-treated wells contained cells incubated in media with equal volumes of DMSO (0.2%). Cells were treated for 72 h for dose-dependent cytotoxicity assays and at 24, 48 and 72 h for anti-proliferative (time-dependent) assays. In order to assess cell viability and anti-proliferative activity after diarylpentanoid treatment, the colorimetric 3-(4,5-dimethylthiazol-2-yl)-2,5-diphenyltetrazolium bromide (MTT) assay was performed as previously described with modifications. The media was aspirated and cells were incubated in 100 µL complete medium with 0.5 mg/mL MTT solution for 4 h in the dark to allow metabolism of MTT by cellular mitochondrial dehydrogenases. The excess MTT was aspirated and the formazan crystals formed were dissolved by the addition of 100 µL of DMSO. The absorbance of dark blue formazan was read at 570/650 nm wavelengths using a microplate reader (Bio-Rad Benchmark Plus Microplate Spectrophotometer, Hercules, CA, USA). Triplicate absorbance values were averaged and the effect of the compounds on growth inhibition was assessed as percentage cell viability as follows: (1) Percentage cell viability =Absorbance of Test − Absorbance of Blank (media only)/Absorbance of Control − Absorbance of Blank (media only) × 100 where, absorbance = optical density of sample, O.D.; control = untreated sample; test = treated sample.
(§2) An independent set of vehicle-treated (DMSO only) controls were included in the anti-proliferative assays to assess the proliferation of untreated cancer cells over 24, 48 and 72 h. As such, the cell viability at 24 h was used as a baseline to measure proliferation rate at 48 and 72 h. (2) Percentage cell viability = […]/Absorbance of Control (24 h) × Absorbance of Blank (media only) × 100

In data set [2] the test system is CaSki. Described as above. The format is cell-based, human. Particulars: for concentration from which a notable decline in cell viability was caused / effect on cell viability: at 24, 48 and 72 h; for cell viability: 6.3–100 μM. As for the experimental part: as §1, §2
The next data set concerns MRC9. The experiment in a line: MTT cell viability (cytotoxicity) assay on non-cancerous lung fibroblasts, 72 h. In kind it is cell-based. Particulars: Homo sapiens, read-out: EC50 (Mean ± S.E.M.) MRC9. As for the experimental part:
as §1
The results were analysed using GraphPad Prism version 6.00 for Windows (GraphPad Software, La Jolla, CA, USA). Using percentage cell viability Equation (1), log dose–response curves were constructed, from which the half maximal effective concentration, EC50 for each replicate was determined. Overall EC50 was determined by taking the average EC50 from three independent experiments. […] (3) Selectivity Index (SX) =EC50 (MRC9)/EC50 (Cancer cell line) × 100

In data set [3] the test system is HeLa. The experiment in a line: MTT cell viability (dose-dependent cytotoxicity) assay, 72 h. The format is cell-based, human. Conditions: for Selective Index HeLa: EC50 (MRC9)/EC50 (HeLa) × 100; for EC50: read-out: EC50 (Mean ± S.E.M.) HeLa. As for the experimental part:
(§3) Control-treated wells contained cells incubated in media with equal volumes of DMSO (0.2%). […] The media was aspirated and cells were incubated in 100 µL complete medium with 0.5 mg/mL MTT solution for 4 h in the dark to allow metabolism of MTT by cellular mitochondrial dehydrogenases. The excess MTT was aspirated and the formazan crystals formed were dissolved by the addition of 100 µL of DMSO. The absorbance of dark blue formazan was read at 570/650 nm wavelengths using a microplate reader (Bio-Rad Benchmark Plus Microplate Spectrophotometer, Hercules, CA, USA). Triplicate absorbance values were averaged and the effect of the compounds on growth inhibition was assessed as percentage cell viability as follows: […] The results were analysed using GraphPad Prism version 6.00 for Windows (GraphPad Software, La Jolla, CA, USA). […] Overall EC50 was determined by taking the average EC50 from three independent experiments.

Data set [4] relates to CaSki. Described as above. The format is cell-based, human. Conditions: for Selective Index CaSki: EC50 (MRC9)/EC50 (CaSki) × 100; for EC50: read-out: EC50 (Mean ± S.E.M.) CaSki. The protocol: as §3
Setting [5] is: MRC9, MTT, 72 h, non-cancerous lung fibroblasts.
The mark [6] stands for this setting: Homo sapiens, Ca-Ski, MTT, 72 h.

As to `COc1cc(/C=C/C(=O)CC(=O)/C=C/c2ccc(O)c(OC)c2)ccc1O` [Curcumin], the “concentration from which a notable decline in cell viability was caused” value (“concentration” below) came out at 50 µM in the data set with HeLa [1] and 25 µM with CaSki [2]. For the same compound, the cell growth result with HeLa [1] (onwards from 50 μM) is “below 50%”. Further, the “effect on cell viability” value in the data set with CaSki [2] (from 25 μM onwards) is given as “significant decline in cell viability”. In addition, the concentration giving a half-maximal response (EC50) in the data set with MRC9 (setting [5]) amounted to 26.6 ± 3.2 µM; with HeLa [3] (Homo sapiens, HeLa, MTT, 72 h), 26.7 ± 14.3 µM; in the data set on CaSki [4] (setting [6]), 15.8 ± 3.1 µM. Further, in the data set with HeLa [3], the “Selective Index HeLa” value was found to be 100. In the data set on HeLa [3] (Homo sapiens, HeLa, beginning at 50 μM, 72 h, read-out: growth inhibition), the inhibition at 50 µM was around 50%. Further, the “Selective Index CaSki” value in the data set with CaSki [4] amounted to 168. Besides, the inhibition at 25 µM in the data set on CaSki [4] (Homo sapiens, Ca-Ski, CaSki, 25 μM, 72 h, read-out: growth inhibition) worked out at 50%.

Consider `COc1cc(C=CC(=O)C=Cc2ccc(O)c(OC)c2)ccc1O` [MS13, 1,5-bis(4-hydroxy-3-methoxyphenyl)-1,4-pentadiene-3-one], for which the entries for the “dosage from which reduction in cell viability was significantly higher at 48 and 72 h than at 24 h” value with HeLa [1] and in the data set on CaSki [2] were 12.5 µM and 6.3 µM, respectively. The “reduction of cell viability” value with HeLa [1] (24 h) is given as 72%; with HeLa [1] (48 h), “approximately 91%”; with HeLa [1] (72 h) it was around 95%. The cell viability in the data set on CaSki [2] (48 h) is recorded as 21%; in the data set on CaSki [2] (72 h), 9%; with HeLa [3] (HeLa, beyond 12.5 μM, 72 h), “less than 10%”. Also, the viability at 12.5 µM in the data set with CaSki [2] (Homo sapiens, Ca-Ski, 12.5 μM, 24 h, read-out: decline of cell viability) is around 50%; in the data set on HeLa [3] (Homo sapiens, HeLa, 12.5 μM, 72 h), around 12%. In addition, the EC50 in the data set with MRC9 (MRC9, 72 h) was found to be 9.7 ± 2.4 µM; in the data set on HeLa [3] (Homo sapiens, HeLa, 72 h) it was 6.7 ± 2.4 µM; with CaSki [4] (Homo sapiens, Ca-Ski, 72 h) it was 2.8 ± 0.4 µM. Besides, in the data set on HeLa [3], the “Selective Index HeLa” value came out at 145. In the data set with CaSki [4] (CaSki, 3.1 μM, 72 h), the “decrease in cell growth” value is recorded as 50%. In addition, the “cell growth after treatment” value with CaSki [4] (CaSki, 6.3–100 μM, 72 h) is “around 10%”. In the data set with CaSki [4], the “Selective Index CaSki” value is recorded as 346.

With `O=C(C=Cc1cccc(F)c1)C=Cc1cccc(F)c1` [MS40E, 1,5-bis(3-fluorophenyl)-1,4-pentadiene-3-one], the “concentration” value came out at 25 µM in the data set with HeLa [1] and 12.5 µM with CaSki [2]. Also, in the data set on HeLa [1] (onwards from 25 μM), the cell growth entry is given as “below 50%”. For the same compound, the “effect on cell viability” value in the data set with CaSki [2] (12.5 μM onwards) was “significant decline in cell viability”. The EC50 worked out at 31.7 ± 3.2 µM in the data set on MRC9 (setting [5]); 15.5 ± 1.9 µM in the data set on HeLa [3] (Homo sapiens, HeLa, MTT, 72 h); 3.5 ± 0.4 µM in the data set with CaSki [4] (setting [6]). In addition, the “Selective Index HeLa” value in the data set on HeLa [3] is given as 204. Also, the inhibition at 25 µM with HeLa [3] (Homo sapiens, HeLa, beginning at 25 μM, 72 h, read-out: growth inhibition) is around 75%. Further, the “Selective Index CaSki” value in the data set with CaSki [4] came out at 906. The inhibition at 6.3 µM with CaSki [4] (Homo sapiens, Ca-Ski, CaSki, 6.3 μM, 72 h, read-out: growth inhibition) was 80%. In the data set with CaSki [4] (Homo sapiens, Ca-Ski, CaSki, 100 μM, 72 h, read-out: growth inhibition), the inhibition at 100 µM turned out to be 90%.

Turning to `O=C1C(=Cc2cccc(F)c2)CCCC1=Cc1cccc(F)c1` [MS49, 2,6-bis(3-fluorobenzylidene)cyclohexanone], the “concentration” value in the data set on HeLa [1] came out at 25 µM; in the data set on CaSki [2] it was 12.5 µM. Moreover, the cell growth entry with HeLa [1] (onwards from 25 μM) is recorded as “below 50%”. Besides, in the data set with CaSki [2] (12.5 μM onwards), the “effect on cell viability” value is listed as “significant decline in cell viability”. Also, the EC50 with MRC9 (setting [5]) was 16.4 ± 4.4 µM; in the data set on HeLa [3] (Homo sapiens, HeLa, MTT, 72 h) it was 8.3 ± 4.6 µM; with CaSki [4] (setting [6]) it was 6 ± 2.9 µM. Also, the “Selective Index HeLa” value in the data set on HeLa [3] was 199. Moreover, the inhibition at 12.5 µM in the data set on HeLa [3] (Homo sapiens, HeLa, beginning at 12.5 μM, 72 h, read-out: growth inhibition) is around 75%. Besides, the cell viability result in the data set with CaSki [4] (CaSki, 25–100 μM, 72 h) was “around 10%”. In the data set with CaSki [4], the “Selective Index CaSki” value is reported as 273. For the same compound, the viability at 12.5 µM with CaSki [4] (Homo sapiens, Ca-Ski, CaSki, 12.5 μM, 72 h) amounted to 20%.
